Tests used:
[1] = Inhibitory power on the superoxide anion (xanthine oxydase/hypoxanthine, cytochrome C reduction at 550 nm); assay type: biochemical; settings: for ability to inhibit the superoxide anion / reduction of cytochrom c (in words): enzymatic system generating superoxide anion
Text: System of production of superoxide anion:xanthine oxydase/hypoxanthine (absence of iron).
The superoxide anion is a reducing substance. It is more especially able to reduce a substrate, the cytochrome C. Its reduction is followed with ultraviolet spectrophotometry to 550 nm.
The percentage of inhibition is described as follows: […]

[2] = system: human monocytes; assay: Cell proliferation of a homogenous population of human monocytes (tritiated thymidine incorporation); assay type: cell-based
Text: In order to specify the pseudodipeptides mode of action, a second experiment has been carried out on an homogenous population of human monocytes.
Cell proliferation has been evaluated the same way as previously: […]

[3] = Inhibitory power on the hydroxyl radical (deoxyribose oxidation, EDTA/iron, H2O2, thiobarbituric acid/MDA detection); assay type: biochemical; settings: antioxidant 10 mM; deoxyribose substrate
Text: Experimental procedure described by J. M. C. Gutteridge in Biochemistry Journal, vol 224 (1984), p. 761-767: oxidation substrate: deoxyribose, system of production of the hydroxyl radical OH.:
Detection: thiobarbituric acid/mondialdehyde (MDA)
Antioxidant of reference: dipeptide β-alanyl-L-histidine (sensitive to enzymatic deactivation)

[4] = system: murine splenocytes; assay: Immunostimulating power: proliferation of murine splenocytes (tritiated thymidine incorporation); assay type: cell-based; settings: for stimulation index (IS): mean of three measurements
Text: Then experimental procedure is extracted from: J. Kunert-Radek, H. Stepien, K. Lyson and M. Pawlikowki--"Effects of calcium channel modulators on the proliferation of mouse spleen lymphocytes in vitro"--Agents and Actions, vol. 29 Nos 3-4 (1990), p. 254-258.
The cell proliferation is followed by the measurement of the incorporation rate of the tritiated thymidine in the cells, expressed in number of desintegrations per mn, deduced from the background noise.
The results obtained with an immunostimulator of reference, the concanavaline A, are given for comparison.
The immunostimulating effect is expressed with a stimulation index (SI). [formula] The values correspond to the mean value of three measurements.

% of inhibition (superoxide anion, cytochrome C reduction) ([1]; 1 mM) | % of inhibition (superoxide anion, cytochrome C reduction) ([1]; 5 mM) | % of inhibition (superoxide anion, cytochrome C reduction) ([1]; 10 mM) | % of inhibition (superoxide anion, cytochrome C reduction) ([1]; 20 mM) | ability to inhibit the superoxide anion / reduction of cytochrom c (in words) [1] | Molecule | stimulation index (IS) ([2]; 2.50 μg/ml) | stimulation index (IS) ([2]; 5.00 μg/ml) | stimulation index (IS) ([2]; 10.00 μg/ml) | stimulation index (IS) ([2]; 25.00 μg/ml) | average factor of activity versus concanavaline A ([2]; human monocytes) | % inhibiton (hydroxyl radical OH.) [3] | stimulation index (IS) ([4]; 2.5 μg/ml) | stimulation index (IS) ([4]; 5.0 μg/ml) | stimulation index (IS) ([4]; 10.0 μg/ml) | stimulation index (IS) ([4]; 25.0 μg/ml) | concentration of maximal immunostimulating effect ([4]; murine splenocytes)
3,5% | 14% | 24% | 35% | strongly inhibit | N[C@@H](CCC(=O)O)C(=O)NCCc1c[nH]cn1 [L-glutamyl-histamine, L-Glutamyl-histamine] | 8.23 | 39.80 | 23.50 | 2.50 | 1.34 | 0% | 7.8 | 42.7 | 42.1 | 5.6 | 5 µg/mL
 |  |  |  | do not have the ability to inhibit | O=C(NCCc1c[nH]cn1)[C@@H]1CCCN1 [L-prolyl-histamine] |  |  |  |  |  | 62% |  |  |  |  | 
 |  |  |  | do not have the ability to inhibit | NCCC(=O)N[C@@H](Cc1c[nH]cn1)C(=O)O [β-alanyl-L-histidine, reference compound] |  |  |  |  |  | 38% |  |  |  |  | 
 |  |  |  |  | concanavaline A [reference compound] | 4.82 | 29.60 | 21.10 |  |  |  | 8.3 | 33.4 | 61.5 | 4.3 | 
